Assay results published in patent publication US9771562B2, “Method for culture of human and mouse prostate organoids and uses thereof” (THE TRUSTEES OF COLUMBIA UNIVERSITY IN THE CITY OF NEW YORK, priority 2012, dated 2017).
Several values for one entry are separate records, joined by “and”; a condition that tells them apart may be missing. Equal entries are not always repeated. Where two headings read alike, the source gives them in different places.

Legend:
[1] = test system: organoids from Nkx3.1^CreERT2/+; Pten^flox/flox; R26R-YFP/+ (NP) mice; experiment: Drug treatment of NP tumor organoids: efficiency of organoid formation; assay type: cell-based, mouse; settings: 1 nM MK-8669; for Frequency (efficiency of organoid formation), Average: average of 3 wells; for Frequency (efficiency of organoid formation), Average / Total organoids counted / Frequency (efficiency of organoid formation): 1000 cells/well, 100 nM DHT control, or without DHT: 10 μM enzalutamide; for Total organoids counted / Frequency (efficiency of organoid formation): single wells, counted after 8 days; for Frequency (efficiency of organoid formation): third passage, embedded in Matrigel; for effect on organoid formation: treatment cultures without DHT, 10 μM enzalutamide
Procedure: Next it was determined whether tumor organoids could be utilized to assess drug response, using organoids from Nkx3.1^CreERT2/+; Pten^flox/flox; R26R-YFP/+ (NP) mice, which were previously used to analyze therapeutic response in vivo [48]. […] To assess therapeutic response, YFP-positive prostate cells were isolated from tamoxifen-induced NP mice for organoid culture, and subsequently dissociated organoids at the third passage to single cell suspensions, followed by plating at 1,000 cells/well embedded within Matrigel/culture medium. Control cultures were established in the presence of DHT, while treatment cultures were established without DHT.
For serial passaging experiments, organoids were passaged at a 1:4 dilution every 1-2 weeks with 0.25% trypsin for 5 minutes at 37° C., followed by mechanical dissociation to nearly single-cell suspensions. Organoids were frozen in complete media with 50% FBS and 10% DMSO. The efficiency of organoid formation was calculated by averaging the number of organoids visible in each well after 7 days of growth using a 10× objective. For statistical analyses, efficiency percentages were arcsin converted to perform unpaired two-tailed Student's t-tests.
The embedding method was used to culture organoids for drug treatment experiments. […] 40 μl of the resulting cell suspension containing 500-3,000 dissociated cells were mixed with 60 μl of Matrigel, and the mixture pipetted around the rim of wells in a 24 well plate. The mixture was allowed to solidify for 30 minutes at 37° C., prior to addition of 400 μl organoid culture medium to each well, with or without supplementation with 100 nm DHT in the presence or absence of drugs. The culture medium was changed every other day, and organoids were counted after 8 days. Drugs were dissolved in DMSO to generate a final concentration of 0.1% in all drug-treated groups. Drug concentrations were as follows: 100 nM DHT, no additions, 0.1% DMSO, 10 μM enzalutamide (provided by Charles Sawyers, Memorial Sloan-Kettering Cancer Center), 1 nM MK-8669 (provided by Cory Abate-Shen, Columbia University Medical Center).

[2] = test system: AR
Procedure: (§1) To examine the effects of androgen-deprivation, organoids established from normal prostate epithelium were cultured and passaged in the presence or absence of DHT. […] To assess the molecular response to androgen-deprivation, quantitative RT-PCR (qPCR) analysis of the expression of several known AR-regulated genes was performed at passage 1.

[3] = test system: organoids established from normal prostate epithelium; settings: absence of DHT versus presence of DHT, after passaging
Procedure: as §1

[4] = test system: AR-regulated genes; settings: after DHT withdrawal, passage 1
Procedure: as §1
For RNA extraction, 4-6 wells of organoids were pooled, pelleted, and dissolved in Trizol reagent prior to processing by the MagMAX 96 Total RNA Isolation Kit (Ambion, Life Technologies). 300-500 ng of RNA was used for cDNA synthesis using the Superscript First Strand Synthesis System (Invitrogen). Quantitative real-time PCR was carried out using SYBR green master mix reagent (QIAGEN) in the Realplex2 instrument (Eppendorf). cDNA samples were diluted 1:5 to 1:10 for all analyses, which were performed in triplicate. Expression values were obtained using the ΔΔCT method and normalized to GAPDH expression; average values are shown as the mean±standard deviation (SD).

[5] = test system: AR; settings: NPK-CARN organoids
Text: In particular, Nkx3.1^CreERT2/+; Pten^flox/flox; Kras^LSL-G12D/+; R26R-YFP/+ mice (termed NPK) were castrated and induced with tamoxifen, so that combined Pten deletion, Kras^G12D activation, and YFP expression occurred specifically in CARNs (FIG. 33A). Transformed lineage-marked CARNs were isolated by flow cytometry on the basis of their YFP expression, and used for organoid culture.
For immunostaining, sections underwent antigen-retrieval by boiling in citrate acid-based antigen unmasking solution (Vector Labs) for 10 min. Primary antibodies were applied to sections and incubated at 4° C. overnight in a humidified chamber. Alexa Fluors (Life Technologies) were used for secondary antibodies. Tyramide amplification (Life Technologies) or ABC Elite (Vector Labs) kits were used for signal detection.

Compound | Frequency (efficiency of organoid formation), Average [1] [%] | Total organoids counted [1] | Frequency (efficiency of organoid formation) [1] | effect on organoid formation [1] | AR immunostaining ([2]; in the absence of DHT) | AR immunostaining ([2]; in the presence of DHT) | organoid size [3] | expression of Fkbp5, Mme, and Psca [4] | expression of Igfbp3 [4] | AR localisation ([5]; in the absence of DHT) | AR localisation ([5]; in the presence of DHT)
CNC(=O)c1ccc(N2C(=S)N(c3ccc(C#N)c(C(F)(F)F)c3)C(=O)C2(C)C)cc1F [Enzalutamide, enzalutamide] | 14.9 | 134 and 163 and 150 | 13.4% and 16.3% and 15.0% | minimal effects |  |  |  |  |  |  | 
C[C@]12CCC(=O)C[C@@H]1CC[C@@H]1[C@@H]2CC[C@]2(C)[C@@H](O)CC[C@@H]12 [DHT, dihydrotestosterone] | 17.4 | 166 and 194 and 162 | 16.6% and 19.4% and 16.2% |  | weaker and mostly cytoplasmic | nuclear | reduced in size | down-regulated | up-regulated | mostly cytoplasmic AR | nuclear AR
CO[C@H]1C[C@@H]2CC[C@@H](C)[C@@](O)(O2)C(=O)C(=O)N2CCCC[C@H]2C(=O)O[C@H]([C@H](C)C[C@@H]2CC[C@@H](OP(C)(C)=O)[C@H](OC)C2)CC(=O)[C@H](C)/C=C(\C)[C@@H](O)[C@@H](OC)C(=O)[C@H](C)C[C@H](C)/C=C/C=C/C=C/1C [MK-8669, ridaforolimus] | 15.9 | 179 and 154 and 145 | 17.9% and 15.4% and 14.5% | minimal effects |  |  |  |  |  |  | 
